We go through one compound from patent publication US20050079231A1, “Use of ingested sublimed sulfur for the restoration of lactose tolerance in humans with the medical disorder of lactose intolerance” (priority 1999, published 2005).

Assay [1] concerns patients with clinical lactose intolerance. The assay can be described thus: Treatment of lactose-intolerant patients with sublimed sulfur: clinical symptoms, baseline vs post-treatment. In kind it is in vivo, humans. The method, then:
(§1) From May 1998 through April 2002, 41 patients (22 with clinical and 19 with both clinical and laboratory evidence of severe lactose intolerance) were treated with sublimed sulfur (USP) and a restricted lactose diet for a mean of 3.6 (standard deviation [SD] 3.4) weeks, followed by a regular diet and sublimed sulfur for a mean of 5.8 (SD 5.0) weeks. Quantitative comparisons were made between baseline and post-treatment symptoms in all patients and standard lactose tolerance test results in a subset of 19 patients with positive baseline lactose tolerance tests.

In assay [2] the test system is patients with positive baseline lactose tolerance tests. Description: Standard lactose tolerance test, baseline vs post-treatment. It is filed as in vivo, humans. The method, then:
as §1

[3] abbreviates: limited course of treatment, conclusion.

The structures appear in SMILES notation.

Consider `[S]` [sublimed sulfur], for which, in assay [1] (13 of 17 patients whose symptoms redeveloped), the “patients who remained asymptomatic after a second course of treatment” value is on record as 76%. Moreover, in assay [1] (17 of the subset of 19 patients with positive baseline lactose tolerance tests), the “patients who became clinically asymptomatic after treatment” value worked out at 89%. In addition, the “patients who remained symptom-free after one course of treatment” value in assay [1] (20 of the remaining 39 patients) was 51%. For the same compound, the “patients who became asymptomatic during treatment” value in assay [1] (39 of 41 patients, sublimed sulfur with restricted lactose diet, then regular diet) was 95%. Further, the overall relapse rate in assay [1] (after one course of treatment, confidence interval in brackets) is 0.46 (confidence interval 0.32-0.61). Also, the “median symptom-free period after discontinuation of sublimed sulfur” value in assay [1] (human, in vivo) is on record as 76 weeks. Moreover, in assay [1] (setting [3]), the lactose tolerance entry was “restored lactose tolerance for prolonged periods”. In addition, the “patients who converted from intolerant to tolerant test results” value in assay [2] (9 of 19 patients) is given as 47%. Besides, the “serum glucose level versus baseline in the lactose tolerance test” value in assay [2] (at 30 minutes, t=2.81, p=0.01) is listed as “increased significantly above baseline”; in assay [2] (at 60 minutes, t=2.58, p=0.02) it was “increased significantly above baseline”. For the same compound, in assay [2] (setting [3]), the lactase activity entry was “significant increase”.
